Source: BigSolDB 2.1

Details: in water

O=C([O-])c1cccc(S(=O)(=O)O)c1.[Na+]
Details	solubility (mole fraction)
278.15 K	0.0276
283.15 K	0.0296
288.15 K	0.032
293.15 K	0.0346
298.15 K	0.0372
303.15 K	0.0417
308.15 K	0.0459
313.15 K	0.0519
318.15 K	0.0584
323.15 K	0.0687
